{
  "source": "patent US6602487B1",
  "about": "“Methods and tests for producing and for inhibiting coronary artery vasospasms” (Dimera Incorporated, priority 1997, dated 2003)",
  "test_system": "coronary arteries",
  "assay": "Drug-induced (S+U) coronary vasospasm in ovariectomized monkeys with E2 plus P or MPA implants",
  "assay_type": "in vivo, rhesus monkeys (Macaca mulatta)",
  "protocol": "Twelve rhesus monkeys (Macaca mulatta), aged 8 to 16 years and with weights of 5-7 kg, were ovariectomized at least 3 months prior to beginning of the study and selected randomly for one of two treatments. After documenting the lack of cardiovascular disease or previous exposure to atherogenic diet and after a normal physical examination (including blood chemistry), monkeys received subdermal sylastic implants containing 200 mg of E2. Two weeks later, sylastic implants containing either 400 mg of P or 400 mg of MPA were additionally implanted. All steroids were purchased from Steraloids (Wilton, N.H.). Both estrogen and progestin implants, providing sustained release steroids, remained in place through the catheterization study 6 weeks after beginning the study. Venous blood sample (5 ml) were collected just prior to beginning the study at weekly intervals for measurements of serum levels of E2, P, and MPA. Target levels of 80-160 pg/ml for E2, 4000-8000 pg/ml for P, and 400-800 pg/ml for MPA were based on levels that are effective by reproductive system indices in women and monkeys. Levels were measured in blood serum at catheterization by specific radio-immunoassays.\nAngiography was carried out under isoflurane (0.75-1.25%) general anesthesia with 70% O2 and 30% N2O, and body temperature supported with a heating pad. After ketamine sedation (10 mg/kg) and endotracheal tube placement, both femoral arteries were cannulated for simultaneous measurement of systemic blood pressure and coronary catheterization. Intravenous anticoagulation with 1000 units of heparin and fluid replacement with 75-150 ml of lactated Ringer's solution, and if needed 10-50 ml of dextran, to reach a minimum control diastolic blood pressure of 60 mm Hg.\nCoronary arteries (left anterior descending or left circumflex) of the monkeys were catheterized and agents injected as described above in Example 1.\nStatistical analysis was carried out by Student's t-test (non-paired) or Chi-square, with the p<0.05 level accepted as significant.\nAll monkeys were treated with estradiol 17β via sylastic implants for the entire treatment period. P or MPA was added during the last 2 weeks as a second sylastic implant, to simulate the luteal phase (P) or hormone replacement therapy (MPA). All steroid implants were left in place, including during angiography. Steroid measurements were made by RIA on serum samples taken just before angiography. Indicates significant differences between P and MPA at p 0.05 (N=6 for each group).",
  "key": {"[1]": {"settings": "minimum, 5-20 minutes after IC S + U"}},
  "note": "“And” between values parts separate entries of the source, which are not always exact repeats. Equal entries are not always repeated.",
  "data": [
    {"smiles": "CC(=O)[C@H]1CC[C@H]2[C@@H]3CCC4=CC(=O)CC[C@]4(C)[C@H]3CC[C@]12C", "note": "[P, progesterone]", "values": [
      {"measurement": "diameter in dilator response to low dose ACh", "setting": "0.18 μg ACh IC", "result": "1.20±0.25", "unit": "mm"},
      {"measurement": "Vasospasms (incidence)", "setting": "S+U IC challenges, E2 implant plus P or MPA implant, N=6 per group", "result": "0 of 6 and 0/6"},
      {"measurement": "reduction of minimum (φ) from controls after S+U", "setting": "S+U stimulation", "result": 67, "unit": "%"},
      {"measurement": "Control DBP in mm Hg", "setting": "before S + U", "result": "60 ± 5", "unit": "mm Hg"},
      {"measurement": "Control Heart rate in bpm", "setting": "before S + U", "result": "130 ± 24", "unit": "bpm"},
      {"measurement": "S + U (φ) minimum", "setting": "minimum diameter 3 to 5 minutes after IC S + U", "result": "0.37±0.02", "unit": "mm"},
      {"measurement": "S + U stim DBP in min Hg", "setting": "[1]", "result": "30 ± 12", "unit": "min Hg"},
      {"measurement": "S + U stim SBP in mm Hg", "setting": "[1]", "result": "51 ± 18", "unit": "mm Hg"},
      {"measurement": "S + U stim heart rate in bpm", "setting": "[1]", "result": "66 ± 34", "unit": "bpm"},
      {"measurement": "Control (φ) in mm", "setting": "proximal LAD or left circumflex diameter under control conditions, E2+P or E2+MPA group", "result": "1.14±0.21", "unit": "mm"}
    ]}
  ]
}
